According to patent EP0273199A2, “Uses of 3,4-diphenyl piperidine derivatives or medicines, 3,4-diphenyl piperidine derivatives, and process for their preparation” (LABORATOIRES HOECHST S.A., priority 1986, dated 1988):
Like-named read-outs stand apart in the source and are kept apart here.

Columns and labels:
Toxizität des Yohimbins = test: Potentiation of yohimbine toxicity; format: in vivo, Maus; settings: for minimal effective dose: ip
Protocol: Wirkung auf die Toxizität des Yohimbins
Zur Zeit 0 erhalten die Mäuse entweder destilliertes Wasser oder verschiedene zu untersuchende Verbindungen i.p. 30 Minuten danach verabreicht man ihnen subkutan eine infratoxische Dosis von 25 mg/kg Yohimbinchlorhydrat.
Die Mortalität wird jede Stunde über einen Zeitraum von 4 Stunden verfolgt und dann nach 24 Stunden notiert.
Die eine antidepressive Aktivität besitzenden Produkte verursachen eine Potenzierung der Toxizität des Yohimbins.

Apomorphin 16 mg/kg = test: Antiapomorphine activity (apomorphine 16 mg/kg s.c., hypothermia); format: in vivo, Maus
Protocol: Zur Zeit 0 nach Ausgleich der Reaktaltemperaturen werden die Mäuse (6 pro Gruppe) in deren Beobachtung gestattende Einzelkäfige (11 x 3,5 x 4 cm) eingeetzt. 30 Minuten nach i.p. bzw. p.o. Verabreichung der Testsubstanz erhalten sie Apomorphin subkutan in einer Dosis von 16 mg/kg. Die Rektaltemperatur wird 30 Minuten nach dem Apomorphin gemessen. Die Kontrolltiere erhalten destilliertes Wasser statt der zu untersuchenden Verbindungen. Die bei diesen Kontrolltieren, die 16 mg/kg Apomorphin erhalten haben, beobachtete Hypothermie liegt im Durchschnitt bei 33°C. Für jede Verbindungsdosis berechnet man die prozentuale Hemmung der Hypothermie.

stereotypen Bewegungen = test: Search for stereotyped movements; format: in vivo, Ratte; settings: rat
From the text: Suche nach stereotypen Bewegungen an der Ratte
Unmittelbar nach i.p. oder p.o. Verabreichung der zu unteruchenden Verbindungen werden die Tiere (6 Ratten pro Gruppe) in 20 x 10 x 10 cm große, mit einem Edelstahldeckel mit Löchern von 1 cm Durchmesser versehene Einzelkäfige aus durchsichtigem Kunststoff eingesetzt. Die stereotypen Bewegungen (Bewegungen der Mundhöhle, Schnüffeln, Lecken oder Kauen) werden nach der von Simon und Chermat (J. Pharmacol. Paris, 1972, 3, 235-238) beschriebenen Methode alle 10 Minuten von 0 bis 3 bewertet, bis sie bei allen Tieren verschwunden sind.

[1] = tested on: durch Reserpin induzierten Hypothermie; test: Antireserpine activity (reserpine-induced hypothermia); format: in vivo, Maus; settings: ip
Protocol: Zur Zeit 0 erhalten die Mäuse intraperitoneal Reserpin (2,5 mg/kg).
4 Stunden danach, wenn die Hypothermie genügend stark erscheint (30 bis 33°C), verabreicht man die verschiedenen zu untersuchenden Verbindungen i.p. oder p.o. Alle 30 Minuten über einen Zeitraum von 2 Stunden mißt man die Rektaltemperatur mit einer auf konstante Tiefe eingeführten, ein Thermoelement tragenden Sonde. Die Rektaltemperatur der mit verschiedenen erfindungsgemäßen Verbindungen behandelten Tiere wird mit der Temperatur einer Kontrollgruppe verglichen, die destilliertes Wasser auf die gleiche Weise wie die untersuchten Verbindungen erhält.
Die Akinesie (fehlende Bewegungen) und Ptose (Öffnungsgrad des Augenlids von 0 bis 4 nach Rubin u.a 1957) werden ebenfalls alle 30 Minuten über einen Zeitraum von 2 Stunden bewertet.
Die eine antidepressive Aktivität besitzenden Produkte wirken der durch Reserpin induzierten Hypothermie entgegen. Für jede Dosis der verabreichten Verbindung berechnet man die prozentuale Hemmung der Hypothermie.

[2] = tested on: durch Oxotremorin induzierten Hypothermie; test: Antioxotremorine activity (oxotremorine-induced hypothermia); format: in vivo, Maus; settings: ip, read-out: Erste wirksame Dosis Oxotremorin
Protocol: Nach Ausgleich der Rektaltemperaturen erhalten Mäuse (6 pro Gruppe) entweder destillietes Wasser oder die verschiedenen zu untersuchenden Verbindungen i.p.
30 Minuten danach verabreicht man intraperitoneal Oxotremorin in einer Dosis von 0,5 mg/kg.
Die Mäuse werden dan beobachtet: Tremor wird je nach der Intensität von 0 bis 3 bewertet, und die Akinesie wird alle 10 Minuten über einen Zeitraum von 30 Minuten auf Vorliegen oder Fehlen bestimmt.
Außerdem beobachtet man 2 Stunden lang das Erscheinen peripherer Symptome (Tränen, Darmentleerung). Die Rektaltemperatur wird alle 30 Minuten über eine Zeitraum von 2 Stunden nach der Verabreichung des Oxotremorins gemessen.
Die eine antidepressive Aktivität besitzenden Produkte wirken der durch Oxotremorin induzierten Hypothermie entgegen.
Für jede Dosis der Verbindung berechnet man die prozentuale Hemmung der Hypothermie.

Motoraktivität = test: Actimetry (motor activity, photocell actimeter); format: in vivo, Maus; settings: for Aktimetrie: mouse, direction of change of motor activity; for Motilität: i.p., direction of change; for Motilität / minimal effective dose: Tabelle Ib; for minimal effective dose: ip, read-out: Erste wirksame Dosis Motilität
From the text: Die Motoraktivität wird mittels Photozellenaktimetern bestimmt (Boissier und Simon, Arch. Int. Pharmacodyn. 1965, 158, 212-221).
Die Mäuse (10 oder ein Vielfaches von 10 pro Gruppe) werden unmittelbar nach i.p. Verabreichung der zu untersuchenden Verbindungen in das Aktimeter eingesetzt. Die Motoraktivität wird danach bis zur 60. Minute gemessen. De Zähler werden nach 30 Minuten abgelesen und dann auf 0 zurückgestellt und im Verlauf von 30 Minuten alle 10 Minuten abgelesen.
Die Beweglichkeit der mit den verschiedenen Verbindungen behandelten Tiere wird mit derjenigen einer destilliertes Wasser erhaltenden Kontrollgruppe verglichen.
Die eine psychostimulierende Aktivität besitzenden Produkte verursachen eine Zunahme der Beweglichkeit.

Maus [3] = test: Behavioural despair test (Porsolt forced swimming); format: in vivo; settings: mouse, 4 mg/kg i.p.
From the text: Test auf verzweifeltes Verhalten, wie von Porsolt u.a. (Arch. Int, Pharmacodyn. Ther. 229, 327 - 336, 1977) beschrieben.
Die Verbindungen werden intraperetoneal 30 Minuten vor dem Test verabreicht, und die Tiere werden vor dem erzwungenen Schwimmtest isoliert gehalten. Man bewertet die Dauer der Unbeweglichkeitsperioden in Sekunden ausgedrückt, die von der 2. bis zur 6. Minute nach dem Einsetzen des Tieres in Wasser gezählt werden.

Maus [4] = test: Tail suspension test; format: in vivo; settings: for minimal effective dose: ip
From the text: Schwanzaufhängungstest an der Maus wie von Stéru u.a. beschrieben (Psychopharmacology 85, 367-370, 1985).
Die Substanzen werden intraperitoneal 30 Minuten vor dem Test verabreicht und die Tiese isoliert (10 Mäuse pro Dosis).
Man bewertet die Dauer der Unbeweglichkeit, ausgedrückt in Sekunden über die 6 Minuten des Tests. Man untersucht auf eine Verkürzung dieser Unbeweglichkeitszeit.

[5] = tested on: Apomorphin 1 mg.kg^-1 s.c.; test: Apomorphine 1 mg/kg s.c. antagonism (no method given); format: in vivo; settings: ip, Tabelle Ib; read-out: Erste wirksame Dosis Apomorphin 1 mg.kg^-1 s.c.
[6] = Mus musculus, ip, read-out: Erste wirksame Dosis Apomorphin 16 mg/kg, mouse, i.p., only or lowest value of the cell
[7] = Mus musculus, read-out: Erste wirksame Dosis Reserpin, mouse, i.p., only or lowest value of the cell
[8] = ip, Tabelle Ib, read-out: Erste wirksame Dosis Apomorphin 16 mg.kg^-1 s.c.
[9] = Tabelle Ib, read-out: Erste wirksame Dosis Reserpin
[10] = Tabelle Ib, read-out: Erste wirksame Dosis T.S.T. Maus

Row | SMILES | minimal effective dose (Apomorphin 16 mg/kg; [6]) | Stereotype Bewegung (stereotypen Bewegungen; 64 mg/kg i.p.) | minimal effective dose [1, 7] | minimal effective dose ([2]; Mus musculus) | Aktimetrie (Motoraktivität) | minimal effective dose (Apomorphin 16 mg/kg; [8]) | minimal effective dose [1, 9] | Motilität (Motoraktivität) | minimal effective dose (Motoraktivität) | minimal effective dose (Maus [4]; [10]) | minimal effective dose [5] | also measured
1 | Clc1ccc(C2CCNCC2c2ccccc2)cc1 (stereo not drawn) [Beispiel 12, cis-4-(4-Chlorphenyl)-3-phenylpiperidin] | 2 mg/kg | 0(64i.p.) | 4 mg/kg | 16 mg/kg | ↘ = |  |  |  |  |  |  | minimal effective dose (Toxizität des Yohimbins; Mus musculus, read-out: Erste wirksame Dosis Yohimbin, mouse, i.p., only or lowest value of the cell): 16 mg/kg
2 | CN1Cc2c(N)cccc2C(c2ccccc2)C1 (stereo not shown) [NOMIFENSIN] |  |  |  |  |  | 2 mg/kg | 8 mg/kg | ↗ | 4 mg/kg | 0.25 mg/kg | 2 mg/kg | minimal effective dose (Toxizität des Yohimbins; Tabelle Ib, read-out: Erste wirksame Dosis Yohimbin): 4 mg/kg; % Antagonismus (Maus [3]): 39%; Dauer der Unbeweglichkeit (Maus [3]; 30 min before test): 120 ± 23 p < 0,001 Sekunden; minimal effective dose [2]: 16 mg/kg; % Antagonismus (Maus [4]; mouse, 0,06 mg/kg i.p.): 35%; Dauer der Unbeweglichkeit (Maus [4]; mouse, 0,06 mg/kg i.p.): 59 ± 9 Sekunden; % Antagonismus (Maus [4]; mouse, 0,25 mg/kg i.p.): 55%; Dauer der Unbeweglichkeit (Maus [4]; mouse, 0,25 mg/kg i.p.): 41 ± 6 p < 0,01 Sekunden; % Antagonismus (Maus [4]; mouse, 1 mg/kg i.p.): 66%; Dauer der Unbeweglichkeit (Maus [4]; mouse, 1 mg/kg i.p.): 31 ± 6 p < 0,01 Sekunden; % Antagonismus (Maus [4]; mouse, 4 mg/kg i.p.): 80%; Dauer der Unbeweglichkeit (Maus [4]; mouse, 4 mg/kg i.p.): 18 ± 5 p < 0,001 Sekunden
3 | FC(F)(F)c1ccc([C@@H]2CCNC[C@H]2c2ccccc2)cc1 (racemic) [Beispiel 3, trans-3-Phenyl-4-(4-trifluormethylphenyl)-piperidin-chlorhydrat] |  | 0(64i.p.) |  |  | ↘ | 2 mg/kg | 1 mg/kg | ↘ | 32 mg/kg | 4 mg/kg | 2 mg/kg | minimal effective dose (Apomorphin 16 mg/kg; ip, mouse, i.p., only or lowest value of the cell, read-out: Erste wirksame Dosis Apomorphin 16 mg/kg): 2 mg/kg; minimal effective dose (Apomorphin 16 mg/kg; mouse, further value in the same cell, route not stated (lowest = i.p.; p.o. also tested), read-out: Erste wirksame Dosis Apomorphin 16 mg/kg): 4 mg/kg; minimal effective dose ([1]; mouse, i.p., only or lowest value of the cell, read-out: Erste wirksame Dosis Reserpin): 1 mg/kg; minimal effective dose ([2]; Tabelle Ib): 8 mg/kg; minimal effective dose ([2]; mouse, i.p.): 8 mg/kg; minimal effective dose (Maus [4]; mouse, i.p., footnote of Tabelle 1, read-out: tail suspension test= positiv ab): ≥ 4 mg/kg
4 | c1ccc([C@@H]2CCNC[C@H]2c2ccccc2)cc1 (relative stereo) [21 (Base), trans-3,4-Diphenylpiperidin] | 4 mg/kg |  | 4 mg/kg | 4 mg/kg |  |  |  |  |  |  |  | Erste wirksame Dosis Yohimbin (Toxizität des Yohimbins; mouse, i.p., only or lowest value of the cell): 4 mg/kg; Stereotype Bewegung (stereotypen Bewegungen; 64 mg/kg p.o.): 0(64p.o.)
